Measurements taken from patent US7510836B2, “Alpha arteether resistance domain” (priority 2003, dated 2009).
≈ marks a conversion by molar mass, not a printed value.

Key:
[1] = test system: E.coli strain CA 8000 (Gyr+); experiment: Phenotype of strain (resistance or sensitivity); assay type: cell-based, Escherichia coli; settings: E.coli CA 8000 (Gyr+)
Procedure: To ascertain the involvement of gyrA mutation, another E.coli strain NK 5819 which is also GyrA″ and nalidixic acid resistant was tested for arteether sensitivity. As expected, strain NK5819 was also sensitive only to a-isomer of arteether. […] The assays for arteether sensitivity was performed by the standard single disk diffusion method (Bauer et al, 1966). As a next step, we isolated gyrA mutants of E.coli strain CA 8000, which is otherwise Gyr+ and nalidixic acid sensitive. The gyrA mutants of CA8000 were isolated as nalidixic acid resistant colonies (20 ug/ml), after mutagenic treatment with NTG ([…]). The isolated CA8000 gyrA mutants were also sensitive only to a isomer of arteether. […] To define precisely the involvement of gyr genes only in the a-arteether sensitivity, we utilised two recombinant clones (pMK 90 and pMK47 containing functional gyr A and gyrB genes respectively) in trans-complementation assays. For this purpose, we mobilized the plasmid clones into the E.coli gyr mutant strains. The resulting transformants were now nalidixic acid sensitive and a-arteether resistant. This constituted the direct evidence supporting our observation that DNA gyrase enzyme alone is involved in conferring a-arteether sensitivity to E.coli strain. […] DNA gyrase enzyme is essential for the bacterial growth. […]

malaria = settings: antimalarial; cited from earlier work
E. coli mutant CA8001 = experiment: Minimum inhibitory concentration (cross resistance); assay type: cell-based; settings: Escherichia coli; strain CA8001
Description: (§1) In order to develop an arteether resistant mutants from an arteether sensitive strains a reverse strategy was applied. Quinoline/fluoroquinolone (Q/FQs) resistant strains were developed spontaneously i.e. screening overnight log phase culture of the Quinolone/fluoroquinolone sensitive i.e. arteether resistant strain (E coli CA 8000) on the poison agar plate of the Q/FQs. The Q/FQ resistant mutants which appeared on the poison agar plates were first purified through single colony purification and then checked for their arteether sensitivity. These arteether sensitive mutants on the contrary when checked for their Q/Fqs resistance they show different level of Q/FQs resistance.
(§2) The minimum inhibitory concentrations (MIC) of the quinolone and fluoroquinolone antibiotics were quantified for different strains and compared among each other. The differential response indicate the measure of resistance and sensitivity. Higher MIC indicate more resistance.

E. coli mutant CA8003 = experiment: as above; assay type: cell-based; settings: Escherichia coli; strain CA8003
Description: as §1, §2

E. coli mutant CA8002 = experiment: as above; assay type: cell-based; settings: Escherichia coli; strain CA8002
Description: as §1, §2

E. coli mutant CA8007 = experiment: as above; assay type: cell-based; settings: Escherichia coli; strain CA8007
Description: as §1, §2

E. coli mutant CA80012 = experiment: as above; assay type: cell-based; settings: Escherichia coli, read-out: minimum inhibitory concentration (MIC)
Description: as §1, §2

E. coli mutant CA8006 = experiment: as above; assay type: cell-based; settings: Escherichia coli; strain CA8006
Description: as §1, §2

E. coli mutant CA8005 = experiment: as above; assay type: cell-based; settings: Escherichia coli; strain CA8005
Description: as §1, §2

E. coli mutant CA8009 = experiment: as above; assay type: cell-based; settings: Escherichia coli; strain CA8009
Description: as §1, §2

E. coli mutant CA80010 = experiment: as above; assay type: cell-based; settings: Escherichia coli, read-out: minimum inhibitory concentration (MIC)
Description: as §1, §2

E. coli CA8000 = experiment: as above; assay type: cell-based; settings: Escherichia coli; strain CA8000
Description: as §2

E. coli DH5a = experiment: as above; assay type: cell-based; settings: Escherichia coli; strain DH5a
Description: as §2

E. coli ET8000 = experiment: as above; assay type: cell-based; settings: Escherichia coli; strain ET8000
Description: as §2

E. coli NK5819 = experiment: as above; assay type: cell-based; settings: Escherichia coli; strain NK5819
Description: as §2

| SMILES | Sensitivity or resistance of the strain (words) [1] | Potency relative to artemisinin (malaria) | MIC (E. coli mutant CA8001) | MIC (E. coli mutant CA8003) | MIC (E. coli mutant CA8002) | MIC (E. coli mutant CA8007) | MIC (E. coli mutant CA80012) | MIC (E. coli mutant CA8006) | MIC (E. coli mutant CA8005) | MIC (E. coli mutant CA8009) | MIC (E. coli mutant CA80010) | MIC (E. coli CA8000) | MIC (E. coli DH5a) | MIC (E. coli ET8000) | MIC (E. coli NK5819) |
| --- | --- | --- | --- | --- | --- | --- | --- | --- | --- | --- | --- | --- | --- | --- | --- |
| CCO[C@H]1O[C@@H]2O[C@@]3(C)CC[C@H]4[C@H](C)CC[C@@H]([C@H]1C)[C@@]24OO3 [arteethers, arteether] | resistant | 2-3 times | – | – | – | – | – | – | – | – | – | – | – | – | – |
| CCn1cc(C(=O)O)c(=O)c2cc(F)c(N3CCNCC3)cc21 [Norfloxacin] | – | – | 15 µg/mL (≈ 47 µM) | 15 µg/mL (≈ 47 µM) | 15 µg/mL (≈ 47 µM) | 15 µg/mL (≈ 47 µM) | 15 µg/mL (≈ 47 µM) | 20 µg/mL (≈ 62.6 µM) | 10 µg/mL (≈ 31.3 µM) | 15 µg/mL (≈ 47 µM) | 15 µg/mL (≈ 47 µM) | < 0.05 µg/mL | 20 µg/mL (≈ 62.6 µM) | 50 µg/mL (≈ 157 µM) | 25 µg/mL (≈ 78.3 µM) |
| O=C(O)c1cn(C2CC2)c2cc(N3CCNCC3)c(F)cc2c1=O [Ciprofloxacin] | – | – | < 0.1 µg/mL | < 0.1 µg/mL | < 0.1 µg/mL | 0.1 µg/mL (≈ 0.302 µM) | 0.1 µg/mL (≈ 0.302 µM) | 0.1 µg/mL (≈ 0.302 µM) | 0.1 µg/mL (≈ 0.302 µM) | 0.1 µg/mL (≈ 0.302 µM) | 0.1 µg/mL (≈ 0.302 µM) | < 0.05 µg/mL | 0.1 µg/mL (≈ 0.302 µM) | 0.5 µg/mL (≈ 1.51 µM) | < 0.1 µg/mL |
